Tests used:
human erythrocyte AChE = target: T1, human erythrocyte AChE (Homo sapiens, UniProt P22303); test: In vitro AChE inhibition assay with human blood; type: biochemical
T1 construct: tissue CTIBiotech (Lyon, France); host or cells: human whole peripheral blood, K2EDTA
Protocol: (§1) Inhibition of rat and human erythrocyte AChE by FNT and FNO was determined using rat and human blood. Additionally, in vitro AChE inhibition assay was also performed by exposing recombinant human AChE and self-prepared rat erythrocyte AChE to FNT and FNO in a low-protein medium to investigate the potential effect induced by blood matrix. Details are provided in the Supporting Information. […]
(§2) Calculation of kinetic parameters […]
(§3) Protein concentration determination for rat and human plasma […]
(§4) In vitro AChE inhibition assay with rat and human blood
(§5) Inhibition of rat and human erythrocyte AChE by FNT and FNO was determined using the protocol from Kasteel et al. (2021). The final concentrations of FNT and FNO in rat and human blood ranged from 0.05 to 500 µM and from 0.01 to 20 µM, respectively (added from 1000 times concentrated stock solutions in ethanol). Absorbance at 436 nm was measured continuously for 60 min and 10 min to detect […]
(§6) the remaining AChE activity in rat and human blood samples, respectively. Assays were conducted in triplicate, and the data obtained were analyzed in GraphPad Prism (version 5.04, San Diego, CA, USA) to define the concentration resulting in 50% inhibition (IC50). […]

[1] = target: T2, self-prepared rat erythrocyte AChE (Rattus norvegicus, UniProt P37136); test: In vitro AChE inhibition assay with self-prepared rat erythrocyte AChE in low-protein medium; type: biochemical
T2 construct: rat erythrocyte AChE was prepared from rat whole; tissue BioIVT (West Sussex, UK); host or cells: rat whole blood (Sprague-Dawley, mixed gender, LiHep); erythrocyte AChE prepared in house
T2 sequence (P37136 other isoform, or with tags, fused parts or gaps): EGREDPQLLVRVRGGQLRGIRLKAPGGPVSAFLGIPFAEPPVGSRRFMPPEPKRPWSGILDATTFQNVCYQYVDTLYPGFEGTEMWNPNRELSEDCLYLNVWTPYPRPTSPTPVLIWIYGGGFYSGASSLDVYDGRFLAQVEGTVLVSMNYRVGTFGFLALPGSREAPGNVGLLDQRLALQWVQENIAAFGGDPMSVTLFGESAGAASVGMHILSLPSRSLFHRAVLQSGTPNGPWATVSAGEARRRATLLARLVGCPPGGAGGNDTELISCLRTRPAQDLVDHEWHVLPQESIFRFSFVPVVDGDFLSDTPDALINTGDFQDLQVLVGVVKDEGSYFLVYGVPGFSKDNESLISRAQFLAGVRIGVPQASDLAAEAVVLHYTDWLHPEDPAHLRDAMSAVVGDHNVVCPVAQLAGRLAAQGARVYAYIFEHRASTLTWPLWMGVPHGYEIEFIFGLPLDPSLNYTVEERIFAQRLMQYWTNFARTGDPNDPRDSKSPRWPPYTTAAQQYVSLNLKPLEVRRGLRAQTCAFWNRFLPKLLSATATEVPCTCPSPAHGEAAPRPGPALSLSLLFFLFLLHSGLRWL
Protocol: as §1
(§7) the remaining AChE activity in rat and human blood samples, respectively. Assays were conducted in triplicate, and the data obtained were analyzed in GraphPad Prism (version 5.04, San Diego, CA, USA) to define the concentration resulting in 50% inhibition (IC50).
(§8) In vitro AChE inhibition assay with self-prepared rat erythrocyte AChE and recombinant human […]
(§9) Based on the method described in Zhao et al. (2021), rat erythrocyte AChE was prepared from rat whole blood and the AChE activity was quantified (0.16 U/mL). The inhibition ability of FNT and FNO towards rhAChE and rat erythrocyte AChE was evaluated using a modified protocol (Zhao et al. 2021), and assays were conducted in triplicate. […] After 15 min incubation at 37℃, 150 µL reaction reagent (mixture of ATC at a final concentration of 150 µM and DTNB at a final concentration of 75 µM) was added, and the absorbance at 412 nm was measured continuously for 10 min at 37℃ to test the remaining AChE activity. The AChE activity was expressed as the remaining AChE activity relative to solvent control (100% activity) and positive control (0% activity) based on the equation (Eq S2): […]
(§10) A 412(t10 - t0) Test Compoundwhere is the change of the absorbance at 412 nm between 0 min and 10 min for the test compound; similarly, A 412(t10 - t0) Positive Control is the change of the absorbance for the CPO sample, and A 412(t10 - t0) Solvent Control the change of the absorbance for the 0.2% ethanol sample. […]
(§11) is relevant for the toxicity prediction following acute FNT exposure. The normalized sensitivity coefficients (SCs) were calculated with the equation (Eq S3)

recombinant human AChE = target: T3, recombinant human AChE (Homo sapiens, UniProt P22303); test: In vitro AChE inhibition assay with recombinant human AChE in low-protein medium; type: biochemical
T3 construct: purchased Sigma-Aldrich (St. Louis, MO, USA)
T3 sequence (P22303 32-614): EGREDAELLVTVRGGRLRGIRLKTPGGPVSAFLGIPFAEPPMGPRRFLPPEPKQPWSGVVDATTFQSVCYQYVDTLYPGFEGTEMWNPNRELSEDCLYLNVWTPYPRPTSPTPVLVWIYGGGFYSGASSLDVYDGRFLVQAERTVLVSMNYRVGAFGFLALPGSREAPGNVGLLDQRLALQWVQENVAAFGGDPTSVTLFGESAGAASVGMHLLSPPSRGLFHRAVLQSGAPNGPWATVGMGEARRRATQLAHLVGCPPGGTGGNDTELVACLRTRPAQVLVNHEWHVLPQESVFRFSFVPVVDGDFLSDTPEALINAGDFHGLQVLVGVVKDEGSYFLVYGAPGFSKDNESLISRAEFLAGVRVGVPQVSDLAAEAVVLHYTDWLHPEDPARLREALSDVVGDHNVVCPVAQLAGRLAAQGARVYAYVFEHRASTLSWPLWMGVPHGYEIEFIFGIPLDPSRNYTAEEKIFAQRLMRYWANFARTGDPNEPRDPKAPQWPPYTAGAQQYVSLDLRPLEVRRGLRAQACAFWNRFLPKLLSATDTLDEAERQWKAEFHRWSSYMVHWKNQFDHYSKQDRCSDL
Protocol: as §1, §7, §8, §9, §10, §11

rat erythrocyte AChE = target: T4, rat erythrocyte AChE (Rattus norvegicus, UniProt P37136); test: In vitro AChE inhibition assay with rat blood; type: biochemical
T4 construct: tissue Innovative Research Inc. (Novi, MI, USA); host or cells: rat whole blood (Sprague-Dawley), K2EDTA
T4 sequence (P37136 other isoform, or with tags, fused parts or gaps): as the sequence (P37136 other isoform, or with tags, fused parts or gaps) above
Protocol: as §1, §2, §3, §4, §5, §6

[2] = assumed default for neutral and acidic compounds, no experimental data; cited from earlier work

T1 sequence (P22303 32-617 isoform P22303-2 limits assumed): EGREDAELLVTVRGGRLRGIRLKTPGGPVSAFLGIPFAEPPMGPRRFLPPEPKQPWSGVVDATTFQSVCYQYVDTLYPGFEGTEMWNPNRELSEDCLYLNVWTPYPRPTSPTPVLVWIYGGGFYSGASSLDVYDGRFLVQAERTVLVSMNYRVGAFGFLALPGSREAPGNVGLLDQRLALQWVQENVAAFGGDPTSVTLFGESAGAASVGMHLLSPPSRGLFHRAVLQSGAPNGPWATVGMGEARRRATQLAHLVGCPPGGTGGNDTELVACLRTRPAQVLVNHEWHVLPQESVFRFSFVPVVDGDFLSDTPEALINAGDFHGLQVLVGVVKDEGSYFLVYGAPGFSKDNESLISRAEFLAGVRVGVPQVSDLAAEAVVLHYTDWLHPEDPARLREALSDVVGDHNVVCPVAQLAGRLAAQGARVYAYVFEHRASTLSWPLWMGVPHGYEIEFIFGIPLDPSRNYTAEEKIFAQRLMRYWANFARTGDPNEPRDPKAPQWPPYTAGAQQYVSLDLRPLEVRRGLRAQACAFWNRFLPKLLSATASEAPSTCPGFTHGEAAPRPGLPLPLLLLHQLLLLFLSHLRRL

| Compound | IC50 (human erythrocyte AChE) [nM] | IC50 [1] [µM] | IC50 (recombinant human AChE) [µM] | IC50 (rat erythrocyte AChE) [µM] | blood plasma ratio (BPr) [2] | IC50 fold lower with self-prepared rat erythrocyte AChE than in rat blood ([1]; ratio of IC50 in rat blood to IC50 with self-prepared enzyme) [fold] | IC50 fold lower with recombinant human AChE than in human blood (recombinant human AChE; ratio of IC50 in human blood to IC50 with recombinant enzyme) [fold] |
| --- | --- | --- | --- | --- | --- | --- | --- |
| COP(=S)(OC)Oc1ccc([N+](=O)[O-])c(C)c1 [FNT, O,O-dimethyl O-4-nitro-m-tolyl phosphorothioate] | > 500000 | 8.24 | 30.9 | ~500 | 0.55 | – | – |
| COP(=O)(OC)Oc1ccc([N+](=O)[O-])c(C)c1 [FNO, fenitrooxon] | 840 | 0.18 | 0.25 | 0.95 | 0.55 | 5.3 | 3.4 |
